Read-outs that look alike come from different tables or passages of the source. Numbered stars: 1 amine (or outer) side, 2 acyl side, 3 side chain; on linkers, the order of the positions; unused ones are H or OH. Bridge positions count the residues as written; N and C are the ends. Square brackets hold non-standard residues; d marks the D form. Peptide text beside a SMILES is read from it. TBMB = c1c(C[*:1])cc(C[*:3])cc1C[*:2]; NMeH = CN[C@@H](Cc1c[nH]cn1)C(=O)O; NMeQ = CN[C@@H](CCC(N)=O)C(=O)O; NMeD = CN[C@@H](CC(=O)O)C(=O)O; NMeL = CN[C@@H](CC(C)C)C(=O)O
Experiments:
[1] = Plasma stability / fragment profiling Method #2 (MALDI-TOF, 95% plasma), human plasma; assay type: in vitro ADME; conditions: peptide fragments observed after incubation in human plasma
Method: To obtain stability data more rapidly, peptides were also assessed in 95% plasma. Here, PBS was omitted, and a 1 mM peptide stock (in DMSO) was directly diluted into plasma (i.e. 2.5 uL stock into 47.5 uL plasma), giving a final concentration of 50 uM. 5 uL samples were taken at appropriate time points and frozen at −80 deg C. For analysis, the samples were defrosted, mixed with 15 uL of 1:1 acetonitrile:methanol, and centrifuged at 13 k for 5 min. 5 uL of the peptide-containing supernatant was aspirated and mixed with 30 mM ammonium bicarbonate in a 1:1 mixture of acetonitrile:H2O. 1 uL of this was then spotted on the MALDI plate and analysed as described above. As above, it should be noted that this is a qualitative assay serves to detect relative changes in plasma stability.
Ac-06-34-18(TMB)-NH2 Phe2 Tyr4 (referred to as wild type peptide) was subsequently subjected to human plasma, and analysed for fragments to appear over time. This was compared to the degradation profile observed in human plasma using the NMe-Arg5 derivative of 06-34-18 (FIGS. 18a and 18b). Fragmentation was determined according to Method #2.

human plasma Kallikrein = molecular target: T1, human plasma Kallikrein (Homo sapiens, UniProt P03952); assay: Functional enzyme inhibition assay with fluorogenic substrate Z-PheArg-AMC, human plasma Kallikrein; assay type: biochemical; conditions: for Ki: read-out: Ki
T1 construct: purchased Stratech, UK
T1 sequence (P03952 20-638): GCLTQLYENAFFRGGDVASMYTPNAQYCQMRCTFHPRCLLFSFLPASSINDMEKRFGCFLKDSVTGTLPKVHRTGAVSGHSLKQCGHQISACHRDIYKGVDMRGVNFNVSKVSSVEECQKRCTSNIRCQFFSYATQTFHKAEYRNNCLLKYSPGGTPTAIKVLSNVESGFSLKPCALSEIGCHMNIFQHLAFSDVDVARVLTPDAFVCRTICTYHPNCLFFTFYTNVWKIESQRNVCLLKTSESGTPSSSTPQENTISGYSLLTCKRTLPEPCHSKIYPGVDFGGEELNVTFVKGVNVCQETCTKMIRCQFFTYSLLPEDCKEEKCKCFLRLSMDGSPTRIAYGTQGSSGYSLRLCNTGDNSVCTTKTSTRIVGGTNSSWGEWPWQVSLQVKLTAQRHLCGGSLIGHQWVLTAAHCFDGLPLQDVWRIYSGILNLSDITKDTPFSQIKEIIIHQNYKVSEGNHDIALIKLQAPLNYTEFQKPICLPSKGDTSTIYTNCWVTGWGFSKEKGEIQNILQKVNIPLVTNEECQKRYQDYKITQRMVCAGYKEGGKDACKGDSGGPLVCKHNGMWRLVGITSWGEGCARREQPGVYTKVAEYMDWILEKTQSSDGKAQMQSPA
How it was run: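 Human plasma kallikrein at 26.5 pM was preincubated 15 minutes with test peptide in Tris/NaCl/MgCl2/CaCl2/BSA buffer pH7.4 at 25° C, then Z-PheArg-AMC added to 100 μM final in 4% DMSO.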

[2] = Table 3a, Alanine scan in Loop2
[3] = Table 3a, ratio of Ki to wild type
[4] = Table 3b, D-amino acid scan in Loop2
[5] = Table 3b, ratio of Ki to wild type
[6] = Table 25a, fold change of Ki of variant compared to WT
[7] = Table 25a, α-N-methyl amino acid scan in Loop2, human plasma kallikrein

Fragments (human plasma) ([1]; Table 3a)	Ki (human plasma Kallikrein; [2]) [nM]	F (Kivar/KiWT) (human plasma Kallikrein; [3])	Fragments (human plasma) ([1]; Table 25a)	F (Kivar/KiWT) (human plasma Kallikrein; [6])	Ki (human plasma Kallikrein; [7]) [nM]	SMILES	other results
–	–	–	-R, -FPYR	105	44.3	CC(=O)N[C@H]1CSCc2cc3cc(c2)CSC[C@H](NC(=O)[C@H](CCCNC(=N)N)NC(=O)[C@H](Cc2ccc(O)cc2)NC(=O)[C@@H]2CCCN2C(=O)[C@H](Cc2ccccc2)NC(=O)[C@H](CO)NC1=O)C(=O)N[C@@H](CC(C)C)C(=O)N[C@@H](Cc1c[nH]cn1)C(=O)N[C@@H](CCC(N)=O)C(=O)N(C)[C@@H](CC(=O)O)C(=O)N[C@@H](CC(C)C)C(=O)N[C@H](C(N)=O)CSC3 [Ac-(06-34-18) Phe2 Tyr4 NMe-Asp9] (Ac-CSFPYRCLHQ[NMeD]LC-NH2; linker 1-7-13 via TBMB)	–
–	–	–	-R, -FPYR	149	62.8	CC(=O)N[C@H]1CSCc2cc3cc(c2)CSC[C@H](NC(=O)[C@H](CCCNC(=N)N)NC(=O)[C@H](Cc2ccc(O)cc2)NC(=O)[C@@H]2CCCN2C(=O)[C@H](Cc2ccccc2)NC(=O)[C@H](CO)NC1=O)C(=O)N[C@@H](CC(C)C)C(=O)N[C@@H](Cc1c[nH]cn1)C(=O)N(C)[C@@H](CCC(N)=O)C(=O)N[C@@H](CC(=O)O)C(=O)N[C@@H](CC(C)C)C(=O)N[C@H](C(N)=O)CSC3 [Ac-(06-34-18) Phe2 Tyr4 NMe-Gln8] (Ac-CSFPYRCLH[NMeQ]DLC-NH2; linker 1-7-13 via TBMB)	–
–	–	–	-R, -FPYR	151	63.5	CC(=O)N[C@H]1CSCc2cc3cc(c2)CSC[C@H](NC(=O)[C@H](CCCNC(=N)N)NC(=O)[C@H](Cc2ccc(O)cc2)NC(=O)[C@@H]2CCCN2C(=O)[C@H](Cc2ccccc2)NC(=O)[C@H](CO)NC1=O)C(=O)N[C@@H](CC(C)C)C(=O)N(C)[C@@H](Cc1cnc[nH]1)C(=O)N[C@@H](CCC(N)=O)C(=O)N[C@@H](CC(=O)O)C(=O)N[C@@H](CC(C)C)C(=O)N[C@H](C(N)=O)CSC3 [Ac-(06-34-18) Phe2 Tyr4 NMe-His7] (Ac-CSFPYRCL[NMeH]QDLC-NH2; linker 1-7-13 via TBMB)	–
–	–	–	-R, -FPYR	137	57.4	CC(=O)N[C@H]1CSCc2cc3cc(c2)CSC[C@H](NC(=O)[C@H](CCCNC(=N)N)NC(=O)[C@H](Cc2ccc(O)cc2)NC(=O)[C@@H]2CCCN2C(=O)[C@H](Cc2ccccc2)NC(=O)[C@H](CO)NC1=O)C(=O)N(C)[C@@H](CC(C)C)C(=O)N[C@@H](Cc1c[nH]cn1)C(=O)N[C@@H](CCC(N)=O)C(=O)N[C@@H](CC(=O)O)C(=O)N[C@@H](CC(C)C)C(=O)N[C@H](C(N)=O)CSC3 [Ac-(06-34-18) Phe2 Tyr4 NMe-Leu6] (Ac-CSFPYRC[NMeL]HQDLC-NH2; linker 1-7-13 via TBMB)	–
–	–	–	-R, -FPYR	1396	586	CC(=O)N[C@H]1CSCc2cc3cc(c2)CSC[C@H](NC(=O)[C@H](CCCNC(=N)N)NC(=O)[C@H](Cc2ccc(O)cc2)NC(=O)[C@@H]2CCCN2C(=O)[C@H](Cc2ccccc2)NC(=O)[C@H](CO)NC1=O)C(=O)N[C@@H](CC(C)C)C(=O)N[C@@H](Cc1c[nH]cn1)C(=O)N[C@@H](CCC(N)=O)C(=O)N[C@@H](CC(=O)O)C(=O)N(C)[C@@H](CC(C)C)C(=O)N[C@H](C(N)=O)CSC3 [Ac-(06-34-18) Phe2 Tyr4 NMe-Leu10] (Ac-CSFPYRCLHQD[NMeL]C-NH2; linker 1-7-13 via TBMB)	–

Second part, the compound before the results:

SMILES	Fragments (human plasma) ([1]; Table 3a)	Ki (human plasma Kallikrein; [2]) [nM]	F (Kivar/KiWT) (human plasma Kallikrein; [3])	Fragments (human plasma) ([1]; Table 25a)	F (Kivar/KiWT) (human plasma Kallikrein; [6])	Ki (human plasma Kallikrein; [7]) [nM]	other results
CC(=O)N[C@H]1CSCc2cc3cc(c2)CSC[C@H](NC(=O)[C@H](CCCNC(=N)N)NC(=O)[C@H](Cc2ccc(O)cc2)NC(=O)[C@@H]2CCCN2C(=O)[C@H](Cc2ccccc2)NC(=O)[C@H](CO)NC1=O)C(=O)N[C@@H](C)C(=O)N[C@@H](Cc1c[nH]cn1)C(=O)N[C@@H](CCC(N)=O)C(=O)N[C@@H](CC(=O)O)C(=O)N[C@@H](CC(C)C)C(=O)N[C@H](C(N)=O)CSC3 [Ac-(06-34-18) Phe2 Tyr4 Ala6] (Ac-CSFPYRCAHQDLC-NH2; linker 1-7-13 via TBMB)	-LHQ, -R	1.9	5	–	–	–	–
CC(=O)N[C@H]1CSCc2cc3cc(c2)CSC[C@H](NC(=O)[C@H](CCCNC(=N)N)NC(=O)[C@H](Cc2ccc(O)cc2)NC(=O)[C@@H]2CCCN2C(=O)[C@H](Cc2ccccc2)NC(=O)[C@H](CO)NC1=O)C(=O)N[C@@H](CC(C)C)C(=O)N[C@@H](C)C(=O)N[C@@H](CCC(N)=O)C(=O)N[C@@H](CC(=O)O)C(=O)N[C@@H](CC(C)C)C(=O)N[C@H](C(N)=O)CSC3 [Ac-(06-34-18) Phe2 Tyr4 Ala7] (Ac-CSFPYRCLAQDLC-NH2; linker 1-7-13 via TBMB)	-R	23.4	56	–	–	–	Kd (human plasma Kallikrein): 23 nM; reduction in potency/affinity compared to wildtype (human plasma Kallikrein): 56 fold
CC(=O)N[C@H]1CSCc2cc3cc(c2)CSC[C@H](NC(=O)[C@H](CCCNC(=N)N)NC(=O)[C@H](Cc2ccc(O)cc2)NC(=O)[C@@H]2CCCN2C(=O)[C@H](Cc2ccccc2)NC(=O)[C@H](CO)NC1=O)C(=O)N[C@@H](CC(C)C)C(=O)N[C@@H](Cc1c[nH]cn1)C(=O)N[C@@H](C)C(=O)N[C@@H](CC(=O)O)C(=O)N[C@@H](CC(C)C)C(=O)N[C@H](C(N)=O)CSC3 [Ac-(06-34-18) Phe2 Tyr4 Ala8] (Ac-CSFPYRCLHADLC-NH2; linker 1-7-13 via TBMB)	-LHQ, -R	1.74	4	–	–	–	–
CC(=O)N[C@H]1CSCc2cc3cc(c2)CSC[C@H](NC(=O)[C@H](CCCNC(=N)N)NC(=O)[C@H](Cc2ccc(O)cc2)NC(=O)[C@@H]2CCCN2C(=O)[C@H](Cc2ccccc2)NC(=O)[C@H](CO)NC1=O)C(=O)N[C@@H](CC(C)C)C(=O)N[C@@H](Cc1c[nH]cn1)C(=O)N[C@@H](CCC(N)=O)C(=O)N[C@@H](C)C(=O)N[C@@H](CC(C)C)C(=O)N[C@H](C(N)=O)CSC3 [Ac-(06-34-18) Phe2 Tyr4 Ala9] (Ac-CSFPYRCLHQALC-NH2; linker 1-7-13 via TBMB)	-LHQDL, -R	1.58	4	–	–	–	–
CC(=O)N[C@H]1CSCc2cc3cc(c2)CSC[C@H](NC(=O)[C@H](CCCNC(=N)N)NC(=O)[C@H](Cc2ccc(O)cc2)NC(=O)[C@@H]2CCCN2C(=O)[C@H](Cc2ccccc2)NC(=O)[C@H](CO)NC1=O)C(=O)N[C@@H](CC(C)C)C(=O)N[C@@H](Cc1c[nH]cn1)C(=O)N[C@@H](CCC(N)=O)C(=O)N[C@@H](CC(=O)O)C(=O)N[C@@H](C)C(=O)N[C@H](C(N)=O)CSC3 [Ac-(06-34-18) Phe2 Tyr4 Ala10] (Ac-CSFPYRCLHQDAC-NH2; linker 1-7-13 via TBMB)	-LHQ, -LHQDL, -R	13.5	32	–	–	–	–
CC(=O)N[C@H]1CSCc2cc3cc(c2)CSC[C@H](NC(=O)[C@H](CCCNC(=N)N)NC(=O)[C@H](Cc2ccc(O)cc2)NC(=O)[C@@H]2CCCN2C(=O)[C@H](Cc2ccccc2)NC(=O)[C@H](CO)NC1=O)C(=O)N[C@@H](CC(C)C)C(=O)N[C@@H](Cc1c[nH]cn1)C(=O)N[C@H](CCC(N)=O)C(=O)N[C@@H](CC(=O)O)C(=O)N[C@@H](CC(C)C)C(=O)N[C@H](C(N)=O)CSC3 [Ac-(06-34-18) Phe2 Tyr4 D-Gln8] (Ac-CSFPYRCLH[dQ]DLC-NH2; linker 1-7-13 via TBMB)	–	–	–	–	–	–	Fragments (human plasma) ([1]; Table 3b): -R, -FPYR; Ki (human plasma Kallikrein; [4]): 317 nM; F (Kivar/KiWT) (human plasma Kallikrein; [5]): 755
CC(=O)N[C@H]1CSCc2cc3cc(c2)CSC[C@H](NC(=O)[C@H](CCCNC(=N)N)NC(=O)[C@H](Cc2ccc(O)cc2)NC(=O)[C@@H]2CCCN2C(=O)[C@H](Cc2ccccc2)NC(=O)[C@H](CO)NC1=O)C(=O)N[C@@H](CC(C)C)C(=O)N[C@H](Cc1c[nH]cn1)C(=O)N[C@@H](CCC(N)=O)C(=O)N[C@@H](CC(=O)O)C(=O)N[C@@H](CC(C)C)C(=O)N[C@H](C(N)=O)CSC3 [Ac-(06-34-18) Phe2 Tyr4 D-His7] (Ac-CSFPYRCL[dH]QDLC-NH2; linker 1-7-13 via TBMB)	–	–	–	–	–	–	Fragments (human plasma) ([1]; Table 3b): -R, -FPYR; Ki (human plasma Kallikrein; [4]): 129 nM; F (Kivar/KiWT) (human plasma Kallikrein; [5]): 308
CC(=O)N[C@H]1CSCc2cc3cc(c2)CSC[C@H](NC(=O)[C@H](CCCNC(=N)N)NC(=O)[C@H](Cc2ccc(O)cc2)NC(=O)[C@@H]2CCCN2C(=O)[C@H](Cc2ccccc2)NC(=O)[C@H](CO)NC1=O)C(=O)N[C@H](CC(C)C)C(=O)N[C@@H](Cc1c[nH]cn1)C(=O)N[C@@H](CCC(N)=O)C(=O)N[C@@H](CC(=O)O)C(=O)N[C@@H](CC(C)C)C(=O)N[C@H](C(N)=O)CSC3 [Ac-(06-34-18) Phe2 Tyr4 D-Leu6] (Ac-CSFPYRC[dL]HQDLC-NH2; linker 1-7-13 via TBMB)	–	–	–	–	–	–	Fragments (human plasma) ([1]; Table 3b): -R, -FPYR; Ki (human plasma Kallikrein; [4]): 9080 nM; F (Kivar/KiWT) (human plasma Kallikrein; [5]): 21615
CC(=O)N[C@H]1CSCc2cc3cc(c2)CSC[C@H](NC(=O)[C@H](CCCNC(=N)N)NC(=O)[C@H](Cc2ccc(O)cc2)NC(=O)[C@@H]2CCCN2C(=O)[C@H](Cc2ccccc2)NC(=O)[C@H](CO)NC1=O)C(=O)N[C@@H](CC(C)C)C(=O)N[C@@H](Cc1c[nH]cn1)C(=O)N[C@@H](CCC(N)=O)C(=O)N[C@@H](CC(=O)O)C(=O)N[C@H](CC(C)C)C(=O)N[C@H](C(N)=O)CSC3 [Ac-(06-34-18) Phe2 Tyr4 D-Leu10] (Ac-CSFPYRCLHQD[dL]C-NH2; linker 1-7-13 via TBMB)	–	–	–	–	–	–	Fragments (human plasma) ([1]; Table 3b): -R, -FPYR; Ki (human plasma Kallikrein; [4]): 416 nM; F (Kivar/KiWT) (human plasma Kallikrein; [5]): 990

Source: patent US10118947B2, “Modulation of structured polypeptide specificity” (BICYCLE THERAPEUTICS LIMITED, priority 2013, dated 2018)
